Assay results as given in ChEMBL document CHEMBL1909046, “DrugMatrix in vitro pharmacology data”.
*1 amine or outer side, *2 acyl side, *3 side chain or, on linkers, in order; H or OH if unused. Where a SMILES comes first, the peptide text is derived from it. Bridges are numbered along the chain shown (N, C = ends). Roman numbers before positions name the chains, in order. [ ]: non-standard residue; d: D form. Actinocin(1to9) = Cc1c2oc3c(C)ccc(C(=O)[*:2])c3nc-2c(C(=O)[*:1])c(N)c1=O; NMeV = CN[C@H](C(=O)O)C(C)C; Sar = CNCC(=O)O

How the values were obtained:
[1] = DRUGMATRIX: Sodium/nucleoside co-transporter radioligand binding (ligand: nitrobenzylthioinosine); type: cell membranes, Cavia porcellus, Dunkin-Hartley, Cerebral cortex, Membrane; conditions: Not Active = under 50% inhibition at 10 µM
[2] = DRUGMATRIX: Calcium Channel Type L, Benzothiazepine radioligand binding (ligand: [3H] Diltiazem); type: cell membranes, Rattus norvegicus, Wistar, Brain, Membrane; conditions: Not Active = under 50% inhibition at 10 µM
[3] = biological target: Melanocortin receptor 4 (Homo sapiens, UniProt P32245); type: cell membranes, HEK293, Membrane; conditions: hek293; further: in other assays of this panel Not Active means under 50% inhibition at 10 µM
Chain of Melanocortin receptor 4 (P32245 whole entry): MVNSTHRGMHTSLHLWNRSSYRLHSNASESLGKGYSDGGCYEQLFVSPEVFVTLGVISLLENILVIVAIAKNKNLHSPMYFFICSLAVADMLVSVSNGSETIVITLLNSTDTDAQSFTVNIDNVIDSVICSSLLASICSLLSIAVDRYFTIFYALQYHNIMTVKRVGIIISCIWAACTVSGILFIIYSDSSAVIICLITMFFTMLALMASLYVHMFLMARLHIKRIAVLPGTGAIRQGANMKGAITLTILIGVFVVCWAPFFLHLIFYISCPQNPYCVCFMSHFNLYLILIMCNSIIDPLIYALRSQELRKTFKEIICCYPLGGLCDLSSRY

[4] = DRUGMATRIX: Atrial Natriuretic Factor (ANF) radioligand binding (ligand: [125I] ANF (rat)); type: cell membranes, Cavia porcellus, Dunkin-Hartley, Adrenal gland, Membrane; conditions: Not Active = under 50% inhibition at 10 µM
[5] = biological target: 5-hydroxytryptamine receptor 2B (Homo sapiens, UniProt P41595); type: cell membranes, CHO-K1, Membrane; conditions: cho-k1; further: in other assays of this panel Not Active means under 50% inhibition at 10 µM
Chain of 5-hydroxytryptamine receptor 2B (P41595 whole entry): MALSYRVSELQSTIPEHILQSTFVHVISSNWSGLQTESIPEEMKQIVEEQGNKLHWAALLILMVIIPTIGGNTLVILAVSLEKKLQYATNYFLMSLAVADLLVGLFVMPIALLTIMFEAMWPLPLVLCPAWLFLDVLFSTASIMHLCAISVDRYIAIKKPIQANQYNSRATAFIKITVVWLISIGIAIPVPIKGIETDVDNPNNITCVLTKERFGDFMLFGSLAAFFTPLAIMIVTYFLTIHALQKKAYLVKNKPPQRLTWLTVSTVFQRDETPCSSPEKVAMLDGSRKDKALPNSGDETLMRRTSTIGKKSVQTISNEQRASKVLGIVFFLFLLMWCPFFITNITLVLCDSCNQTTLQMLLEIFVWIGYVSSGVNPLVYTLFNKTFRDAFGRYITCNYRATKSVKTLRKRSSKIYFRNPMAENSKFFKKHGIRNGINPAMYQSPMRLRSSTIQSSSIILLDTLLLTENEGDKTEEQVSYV

[6] = biological target: Mitogen-activated protein kinase 3 (Homo sapiens, UniProt P27361); experiment: DRUGMATRIX: Protein Serine/Threonine Kinase, ERK1 enzyme inhibition (substrate: Myelin Basic Protein); design: species or system Escherichia coli; conditions: Not Active = under 50% inhibition at 10 µM
Chain of Mitogen-activated protein kinase 3 (P27361 whole entry): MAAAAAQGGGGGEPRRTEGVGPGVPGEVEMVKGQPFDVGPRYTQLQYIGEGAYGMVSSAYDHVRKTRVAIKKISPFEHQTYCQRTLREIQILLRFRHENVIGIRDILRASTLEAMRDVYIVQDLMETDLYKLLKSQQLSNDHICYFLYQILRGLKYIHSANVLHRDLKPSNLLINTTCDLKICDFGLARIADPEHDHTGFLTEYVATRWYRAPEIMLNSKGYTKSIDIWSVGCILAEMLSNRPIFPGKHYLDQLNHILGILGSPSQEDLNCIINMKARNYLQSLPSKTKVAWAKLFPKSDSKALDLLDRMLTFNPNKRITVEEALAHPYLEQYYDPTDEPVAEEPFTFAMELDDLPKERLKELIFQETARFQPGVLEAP

[7] = biological target: T1, Alpha-1D adrenergic receptor (Homo sapiens, UniProt P25100); type: cell membranes, HEK293, Membrane; conditions: hek293; further: in other assays of this panel Not Active means under 50% inhibition at 10 µM
T1 sequence (P25100 whole entry): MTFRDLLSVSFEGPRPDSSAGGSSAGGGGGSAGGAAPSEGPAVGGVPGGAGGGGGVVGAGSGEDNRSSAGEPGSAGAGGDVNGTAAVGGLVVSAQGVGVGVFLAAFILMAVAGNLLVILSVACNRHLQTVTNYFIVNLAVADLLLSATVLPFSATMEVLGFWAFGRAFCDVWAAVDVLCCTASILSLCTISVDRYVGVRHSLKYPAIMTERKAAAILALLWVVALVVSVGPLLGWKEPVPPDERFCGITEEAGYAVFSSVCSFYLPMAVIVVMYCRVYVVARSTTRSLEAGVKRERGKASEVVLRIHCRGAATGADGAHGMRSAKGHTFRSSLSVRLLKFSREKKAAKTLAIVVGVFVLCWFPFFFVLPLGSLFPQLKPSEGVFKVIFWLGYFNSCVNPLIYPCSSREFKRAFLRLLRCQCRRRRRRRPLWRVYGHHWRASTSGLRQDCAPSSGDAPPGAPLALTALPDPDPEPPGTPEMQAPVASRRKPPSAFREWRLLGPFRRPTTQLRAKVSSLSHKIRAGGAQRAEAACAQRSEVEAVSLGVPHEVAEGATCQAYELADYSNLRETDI

Nc1c(Br)cc(Br)cc1CN[C@H]1CC[C@H](O)CC1 [AMBROXOL]
Not Active: IC50 [1] | Ki [1] | IC50 [2] | Ki [2] | IC50 [3] | IC50 [4] | Ki [4] | IC50 [5] | IC50 [6] | IC50 [7]

NCCCCCC(=O)O [AMINOCAPROIC ACID]
Not Active: IC50 [1] | Ki [1] | IC50 [2] | Ki [2] | IC50 [3] | IC50 [4] | Ki [4] | IC50 [5] | IC50 [6] | IC50 [7]

CCC(C)n1ncn(-c2ccc(N3CCN(c4ccc(OCC5COC(Cn6cncn6)(c6ccc(Cl)cc6Cl)O5)cc4)CC3)cc2)c1=O (stereo not given) [ITRACONAZOLE]
Not Active: IC50 [1] | Ki [1] | IC50 [2] | Ki [2] | IC50 [3] | IC50 [4] | Ki [4] | IC50 [5] | IC50 [6] | IC50 [7]

Cc1c(C)c2c(c(C)c1O)CC[C@@](C)(CCC[C@H](C)CCC[C@H](C)CCCC(C)C)O2 [ALPHA-TOCOPHEROL]
Not Active: IC50 [1] | Ki [1] | IC50 [2] | Ki [2] | IC50 [3] | IC50 [4] | Ki [4] | IC50 [5] | IC50 [6] | IC50 [7]

Cc1cc(C(C#N)c2ccc(Cl)cc2)c(Cl)cc1NC(=O)c1cc(I)cc(I)c1O (stereo not given) [CLOSANTEL]
Not Active: IC50 [1] | Ki [1] | IC50 [2] | Ki [2] | IC50 [3] | IC50 [4] | Ki [4] | IC50 [5] | IC50 [6] | IC50 [7]

CNNCc1ccc(C(=O)NC(C)C)cc1 [PROCARBAZINE]
Not Active: IC50 [1] | Ki [1] | IC50 [2] | Ki [2] | IC50 [3] | IC50 [4] | Ki [4] | IC50 [5] | IC50 [6] | IC50 [7]

Cc1ccc(/N=C/N(C)/C=N/c2ccc(C)cc2C)c(C)c1 [AMITRAZ]
Not Active: IC50 [1] | Ki [1] | IC50 [2] | Ki [2] | IC50 [3] | IC50 [4] | Ki [4] | IC50 [5] | IC50 [6] | IC50 [7]

Cc1ccc2cc3c(ccc4ccccc43)c3c2c1CC3 [3-METHYLCHOLANTHRENE]
Not Active: IC50 [1] | Ki [1] | IC50 [2] | Ki [2] | IC50 [3] | IC50 [4] | Ki [4] | IC50 [5] | IC50 [6] | IC50 [7]

CNCCc1ccccn1 [BETAHISTINE]
Not Active: IC50 [1] | Ki [1] | IC50 [2] | Ki [2] | IC50 [3] | IC50 [4] | Ki [4] | IC50 [5] | IC50 [6] | IC50 [7]

OC(Cn1cncn1)(Cn1cncn1)c1ccc(F)cc1F [FLUCONAZOLE]
Not Active: IC50 [1] | Ki [1] | IC50 [2] | Ki [2] | IC50 [3] | IC50 [4] | Ki [4] | IC50 [5] | IC50 [6] | IC50 [7]

Cc1c2oc3c(C)ccc(C(=O)N[C@@H]4C(=O)N[C@H](C(C)C)C(=O)N5CCC[C@H]5C(=O)N(C)CC(=O)N(C)[C@@H](C(C)C)C(=O)O[C@@H]4C)c3nc-2c(C(=O)N[C@@H]2C(=O)N[C@H](C(C)C)C(=O)N3CCC[C@H]3C(=O)N(C)CC(=O)N(C)[C@@H](C(C)C)C(=O)O[C@@H]2C)c(N)c1=O [DACTINOMYCIN] (I: T[dV]P[Sar][NMeV] / II: T[dV]P[Sar][NMeV]; ester I:1-I:C, II:1-II:C; linker I:N-II:N via Actinocin(1to9))
Not Active: IC50 [1] | Ki [1] | IC50 [2] | Ki [2] | IC50 [3] | IC50 [4] | Ki [4] | IC50 [5] | IC50 [6] | IC50 [7]

Nc1nc(N)nc(-c2cc(Cl)ccc2Cl)n1.O=C(O)/C=C\C(=O)O [IRSOGLADINE MALEATE]
Not Active: IC50 [1] | Ki [1] | IC50 [2] | Ki [2] | IC50 [3] | IC50 [4] | Ki [4] | IC50 [5] | IC50 [6] | IC50 [7]

Nc1ncn([C@@H]2O[C@H](CO)[C@@H](O)[C@H]2O)c(=O)n1 [AZACITIDINE]
Not Active: IC50 [1] | Ki [1] | IC50 [2] | Ki [2] | IC50 [3] | IC50 [4] | Ki [4] | IC50 [5] | IC50 [6] | IC50 [7]

CC(NC(C)(C)C)C(=O)c1cccc(Cl)c1 (stereo not given) [BUPROPION]
Not Active: IC50 [1] | Ki [1] | IC50 [2] | Ki [2] | IC50 [3] | IC50 [4] | Ki [4] | IC50 [5] | IC50 [6] | IC50 [7]

Cc1cc(C2CCCCC2)n(O)c(=O)c1 [CICLOPIROX]
Not Active: IC50 [1] | Ki [1] | IC50 [2] | Ki [2] | IC50 [3] | IC50 [4] | Ki [4] | IC50 [5] | IC50 [6] | IC50 [7]
